# Assay results from patent US7956088B2, “Synthetic lactone formulations and methods of use” (priority 2002, dated 2011).
# Values joined by “and” are separate entries in the source; they are usually repeats but may differ in a detail not shown here. Equal values may be shown once. Read-outs that look alike come from different tables or passages of the source.
# Legend:
# Sarcina lutea = test: Disc zone of inhibition / MIC tests No. 1-3, poured in plate, Mueler Hinton pH 8; format: cell-based; conditions: for zone of inhibition at 10 µg/disc: Micrococcus luteus; for zone of inhibition at 10 µg/disc / P (mm), zone of inhibition: pattern disc with 10 μg
# Escherichia coli = test: Microbiological sensitivity assay; format: cell-based
# Source text: (§1) Culture Medium for E. coli and k. neumoniae (according to USP 23 <81>) • Peptone . . . 5.0 g • Yeast Extract . . . 1.5 g • Beef Extract . . . 1.5 g • Sodium Chloride . . . 3.5 g • Dextrose . . . 1.0 g • Dibasic Potassium Phosphate . . . 3.68 g • Monobasic Potassium Phosphate . . . 1.32 g • Water To make about . . . 1.0 L • pH after sterilized 7.0±0.05 Antibacterial Activity Assays (Minimum Inhibitory Concentration, MIC)
# Klebsiela pneumoniae = test: Microbiological sensitivity assay; format: cell-based
# Source text: as §1
# Pseudomona aeruginosa = test: Microbiological sensitivity assay; format: cell-based
# Source text: Culture Medium for Pseudomona aeruginosa (USP 23 <81>) • Pancreatic digestive Caseine . . . 17.0 g • soy Papaine digestive . . . 3.0 g • Sodium Chloride . . . 5.0 g • Dibasic Potassium Phosphate . . . 2.5 g • Dextrose . . . 2.5 g • Agar . . . 20.0 g • Water to make about . . . 1.0 Lit • pH after sterilized 7.2±0.1
# Staphylococcus aureus = test: Microbiological sensitivity assay; format: cell-based
# Source text: Culture Medium for Staphylococo aureus (USP 23 <81>) • Peptone . . . 1.0 g • Digestive pancreatic Caseine . . . 4.0 g • Yeast Extract . . . 3.0 g • Beef Extract . . . 1.5 g • Dextrose . . . 1.0 g • Agar . . . 15.0 g • Water to make about . . . 1.0 Lit • pH after sterilized 6.6±0.1
# [1] = Rats infected in surgery, then treated; format: in vivo
# Source text: The high activity of these lactones against Escherichia coli, Klebsiela pneumoniae, Pseudomona aeruginosa, Staphylococo aureus, among others, and its low molecular weight, are advantageous.
# [2] = system: C-33 (HPV-negative) human cervical cancer cells; test: In vitro cytotoxicity / anti-proliferative activity; format: cell-based
# Procedure: (§5) Four tumor cell lines, including human prostate cancers PC-4 (androgen-insensitive) and LnCaP (androgen-insensitive) and human cervical cancers CaSKi (human papilloma virus-(HPV) Type-16 positive] and C-33 (HPV-negative), were cultured in RPMI-10% bovine serum, glutamine and antibiotics at 5% CO2 an 37 degrees Celsius.
# (§6) The lethal dosages for each cell line is listed below:
# [3] = system: LnCaP human prostate cancer cells; test: as above; format: cell-based
# Procedure: as §5, §6
# [4] = system: PC-4 human prostate cancer cells; test: as above; format: cell-based
# Procedure: as §5, §6
# [5] = system: CaSKi (HPV Type-16 positive) human cervical cancer cells; test: as above; format: cell-based
# Procedure: as §5, §6
# [6] = system: PC-4, LnCaP, CaSKi and C-33 tumor cell lines; conditions: curves of 1000 μg LMSV-6 and 1000 μM tamoxifen; cell line not stated
# Procedure: Four tumor cell lines, including human prostate cancers PC-4 ([…]) and LnCaP ([…]) and human cervical cancers CaSKi (human papilloma virus-(HPV) Type-16 positive] and C-33 (HPV-negative), were cultured in RPMI-10% bovine serum, glutamine and antibiotics at 5% CO2 an 37 degrees Celsius.
# [7] = system: Salmonella typhimurium TA100; test: Ames test; format: cell-based; conditions: ≦100 μg/mL
# Procedure: (§2) This study was performed in accordance with the norms of USC 79/831, which establishes the guidelines for toxicological analytical methods.
# (§3) The Ames test detects drug-induced ‘reverting mutations’ in previously mutated strains of Salmonella typhimurium, all of which have the rfa mutation that makes their cell membranes permeable to chemical agents. […] The presence of these mutations incapacitates the growth of these cells in a histidine-poor culture medium.
# (§4) A drug is said to be mutagenic if it causes a greater than 2-fold increase in the number of colonies growing in histidine-poor medium.
# [8] = system: Salmonella typhimurium TA98; test: Ames test; format: cell-based; conditions: 1 or 10 μg/mL
# Procedure: as §2, §3, §4
# [9] = Study of adverse reactions in healthy volunteers; format: in vivo
# Source text: Nineteen healthy volunteers participated in the study. The age of the participants was between 21 and 40 years with an average of 30.5±7.2 years. The weight was between 150 and 190 pounds with a median of 163.2±14.3 pounds and the height was 1.8 to 2.1 meters with an average of 1.9±0.1 meters. The subjects were selected at random in agreement with the national and international criteria and norms established for investigations with human beings.
# The state of health of the participants was established using several clinical evaluations, laboratory tests, electrocardiographs and thoracic radiographs. The functionality of the liver and the renal systems was verified by chemical-enzymatic studies. Likewise, for each participant we carried out tests of blood chemistry, pathology and urinalysis. For the females, the absence of pregnancy and/or lactation was verified by means of laboratory tests and gynecological evaluation.
# Participants were divided into three groups selected at random (n=6): • Group I (placebo) received 2.0 ml of saline solution (ClNa^+, 0.9%), Group II, received 60 mg of LMSV-6 intramuscularly, and Group III (n=7) received 100 mg of LMSV-6 intramuscularly. The participants underwent several tests used to establish the basal values of the objective parameters of the analysis, which included:
# Lab Studies: hemogram, blood chemistry, urinalysis and coproanalysis
# Cardiovascular Function: arterial tension (TA), cardiac rhythm (RC), cardiac frequency (FC) and radial pulse (PR)
# Pulmonary Functions: pulmonary respiration (VP) and respiratory frequency (FR)
# Renal Function: urinary volume and urinary frequency (FU)
# Sensory System: hearing, vision, smell, taste and sensory reflexes
# Skin and/or Teguments: sensitivity, skin texture, temperature and musculo-skeletal tone
# Neurovegetative Functions: salivary gland and sweat gland activities, gastrointestinal […] and visceral reflexes
# Hypersensitivity Reactions: local sensitivity and systemic sensitivity.
# [10] = anti-proliferative activity after 72 hours
structure (smiles),measurement,setting,value
"CO/N=C(\C(=O)N[C@@H]1C(=O)N2C(C(=O)O)=C(CSc3nc(=O)c(=O)[nH]n3C)CS[C@H]12)c1csc(N)n1 [Ceftriaxone, reference compound]",zone of inhibition at 10 µg/disc,"Sarcina lutea; Test No 2, read-out: P (mm), zone of inhibition",18 mm
same,zone of inhibition at 10 µg/disc,"Sarcina lutea; Test No 2, unlabelled sum line, read-out: P (mm), total of the three zones",49 mm
same,zone of inhibition at 10 µg/disc,"Sarcina lutea; Test No. 1, read-out: P (mm), zone of inhibition",12 mm
same,zone of inhibition at 10 µg/disc,"Sarcina lutea; Test No. 1, unlabelled sum line, read-out: P (mm), total of the three zones",43 mm
same,zone of inhibition at 10 µg/disc,"Sarcina lutea; Test No. 3, read-out: P (mm), zone of inhibition",18 mm
same,zone of inhibition at 10 µg/disc,"Sarcina lutea; Test No. 3, unlabelled sum line, read-out: P (mm), total of the three zones",49 mm
same,"P (mm), zone of inhibition",Sarcina lutea; Test No 2,16 mm and 15 mm
same,"P (mm), zone of inhibition",Sarcina lutea; Test No. 1,15 mm and 16 mm
same,"P (mm), zone of inhibition",Sarcina lutea; Test No. 3,16 mm and 15 mm
"C=C1CCOC1=O [LMSV-6, 4,5-dihydro-3-methylene-2[3H]furanone]","S (mm), zone of inhibition","Sarcina lutea; Test No 2, 16.0 microliters/100 mL and 10 μL applied to sensibility disc",20 mm and 23 mm and 19 mm
same,"S (mm), total of the three zones","Sarcina lutea; Test No 2, 16.0 microliters/100 mL, 10 μL applied, unlabelled sum line",62 mm
same,"S (mm), zone of inhibition","Sarcina lutea; Test No. 1, 5 pure μL applied to sensibility disc",40 mm and 44 mm and 43 mm
same,"S (mm), total of the three zones","Sarcina lutea; Test No. 1, 5 pure μL, unlabelled sum line",127 mm
same,Sample zone of inhibition relative to pattern,"Sarcina lutea; Test No. 1, versus ceftriaxone 10 μg disc",three times bigger
same,"S (mm), zone of inhibition","Sarcina lutea; Test No. 3, 10 microliters/10 mL and 20 μL applied to sensibility disc",3 mm and 4 mm
same,"S (mm), total of the three zones","Sarcina lutea; Test No. 3, 10 microliters/10 mL, 20 μL applied, unlabelled sum line",10 mm
same,Zone of Inhibition,Sarcina lutea; applied volume to disc 0.2 μL (MIC),3.3 mm
same,Zone of Inhibition,Sarcina lutea; applied volume to disc 1.6 M,20.0 mm
same,Zone of Inhibition,Sarcina lutea; applied volume to disc 5 μL,42.0 mm
same,Minimum Inhibitory Concentration (MIC),Sarcina lutea; volume applied to disc,~0.2 µL
same,Activity against Escherichia coli,Escherichia coli,high activity
same,Activity against Klebsiela pneumoniae,Klebsiela pneumoniae,high activity
same,Activity against Pseudomona aeruginosa,Pseudomona aeruginosa,high activity
same,Activity against Staphylococcus aureus,Staphylococcus aureus,high activity
same,Treatment of developed infection,[1],successfully treated
same,"LD50, cytotoxicity",[2]; after 4 hours,538 µM
same,LD50,[2]; [10],7.10 µM
same,LD50,"[3]; LNCaP, anti-proliferative activity after 72 hours",26.5 µM
same,"LD50, cytotoxicity","[3]; LnCaP, after 4 hours","> 1,982 μM"
same,"LD50, cytotoxicity",[4]; after 4 hours,"> 1,982 μM"
same,LD50,[4]; [10],59.2 µM
same,"LD50, cytotoxicity",[5]; after 4 hours,"> 1,982 μM"
same,LD50,[5]; [10],64.3 µM
same,LD50 from curves of percent inhibition of proliferation,[6],528 µM
same,Colony count in histidine-poor medium,[7],did not increase normal colony count
same,Colony count in histidine-poor medium,[8],did not increase normal colony count
same,Respiratory frequency (FR),[9]; during the entire test,18 to 20 respirations per minute
same,Adverse reactions,"[9]; human, in vivo","no evidence, sign or symptom of adverse reactions"
same,"Allergic effects (reactivity), local and systemic","[9]; human, in vivo",not any manifestation of allergic reactions
same,Cutaneous sensitivity and temperature,"[9]; human, in vivo",did not provoke any change
same,Electrocardiograph pattern,"[9]; human, in vivo",no variation
same,"Mental state and sensory acuteness (auditory, visual, olfactory, taste)","[9]; human, in vivo",did not provoke any alteration
same,Respiratory mechanics and dynamics,"[9]; human, in vivo",did not alter
same,Tolerance of maximum dosage tested,"[9]; human, in vivo",well tolerated
CC/C(=C(\c1ccccc1)c1ccc(OCCN(C)C)cc1)c1ccccc1 [Tamoxifen],LD50 from curves of percent inhibition of proliferation,[6],345 µM
"CN(Cc1cnc2nc(N)nc(N)c2n1)c1ccc(C(=O)N[C@@H](CCC(=O)O)C(=O)O)cc1 [methotrexate, reference compound]",Anti-proliferative activity against CaSKi,[5],lacked activity
